Drawing on patent US10874743B2, “IRAK degraders and uses thereof” (Kymera Therapeutics, Inc., priority 2017, dated 2020), this text covers DC50 for 26 compounds.

SMILES strings stand for the structures.

The experiment deals with T1, IRAK4 (Homo sapiens, UniProt Q9NWZ3).
T1 sequence (Q9NWZ3 1-460): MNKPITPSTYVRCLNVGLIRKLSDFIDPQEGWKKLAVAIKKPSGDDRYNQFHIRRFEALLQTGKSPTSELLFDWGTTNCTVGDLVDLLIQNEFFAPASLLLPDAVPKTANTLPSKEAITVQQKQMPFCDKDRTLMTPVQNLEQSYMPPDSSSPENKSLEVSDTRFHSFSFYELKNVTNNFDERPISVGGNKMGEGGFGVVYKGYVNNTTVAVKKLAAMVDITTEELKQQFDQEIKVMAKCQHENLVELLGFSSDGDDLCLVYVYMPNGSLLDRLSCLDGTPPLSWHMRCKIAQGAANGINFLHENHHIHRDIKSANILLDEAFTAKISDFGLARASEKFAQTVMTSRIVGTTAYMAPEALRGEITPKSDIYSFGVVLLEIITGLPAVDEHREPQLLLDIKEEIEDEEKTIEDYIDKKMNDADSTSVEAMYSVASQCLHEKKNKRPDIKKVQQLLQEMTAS
Description: OCI-LY-10 MSD assay for IRAK4 DC50. Format: cell-based. Also noted: endogenous in cells; host or cells: OCI-LY10. The following applies: OCI-LY10 cells, 4 hr incubation, concentration required to degrade 50% of protein. The method, then:
A MSD assay was run to determine the concentration of compound required to degrade 50% of protein (DC50).
Day 1 • Compounds were reconstituted to 10 mM in stock solutions. The stock solutions were diluted to 5 mM and 45 μL of each dilution was transferred to a 384 pp-plate. A 3 fold, 8-point serial dilution was performed by transferring 15 μL of compound into 30 μL DMSO using Janus. • 20 nL of each compounds were added into each well of a 96-well plate (Corning3799). • OCI-Ly10 cells were seeded into the 96-well plate at 3.0*10e^5 cells/100 μL/well. • The cell plate was shaken at 720 rpm for 5 min and incubated for 4 hr. • The 100 μL of cells were transferred into the 96-PCR plate and spun down at high speed for 5 mins. • The supernatant was discarded and 100 μL of RIPA lysis buffer with proteinase inhibitors was added per well. The plate was then sealed and shaken at 600 rpm and 4° C. for about 20 min. • The plate was then spun down at high speed (about 3200 g) for 30 min and then frozen in a −80° C. fridge. • A bare MSD plate (L15XA-3) was coated with 2 μg/mL of capture antibody (mouse Anti-IRAK4 antibody [2H9], ab119942) in PBS to 40 μL/well and incubated overnight at 4° C.
Day 2 • The MSD coated plate was washed 3× (150 μL/well) with 1×TBST (CST #9997S). • The MSD plate was then blocked with 150 μL of blocking buffer [3% Blocker A (MSD, R93BA-4) in TBST]/well and shaken for 1 hr at R^† and 600 rpm. • The MSD plate was washed 3× (150 μL/well) with 1×TBST. The sample RIPA lysates were then added to the MSD plate (50 μL/well) and shaken for 1 hr at R^† and 600 rpm. • The MSD plate was washed 3× (150 μL/well) with 1×TBST and the primary detection antibody (Rabbit Anti-IRAK4 antibody [Y279], ab32511) was added to a final concentration of 1 μg/ml with 25 μL/well. The plate was then shaken for 1 hr at RT and 600 rpm. • The MSD plate was washed 3× (150 μL/well) with 1×TBST and the secondary detection antibody, SULFO-TAG anti-species antibody (Anti Rabbit Antibody (R32AB-5) MSD, R32AB-1) was added to a volume of 25 μL/well at a final concentration of 1 jag/ml. The plate was then shaken for 1 hr at RT and 600 rpm. • The MSD plate was then washed 3× (150 μL/well) with 1×TBST. • lx MSD reading buffer was then added (150 μL/well) and the plate was diluted with 4× water. (MSD, R92TC-2) • The MSD instrument was then read.
Data Analysis • The remaining activity was calculated following the formula below:
Calculate • The DC50 was calculated by fitting the Curve using Xlfit (v5.3.1.3), equation 201: Y=Bottom+(Top−Bottom)/(1+10^((Log IC50−X)*HillSlope))
OCI-LY-10 DC50 results. The letter codes for IRAK4 DC50 indicate the concentration of compound required to degrade 50% of protein: A (<0.05 μM), B (0.05-0.1 μM), C (0.1-0.5 μM), D (0.5-1.0 μM), and E (>1.0 μM).
`CNC(=O)c1nn(-c2ccc(CNCCOCCOCCNc3cccc4c3C(=O)N(C3CCC(=O)NC3=O)C4=O)cc2)cc1NC(=O)c1coc(-c2ccnc(NCC(F)(F)F)c2)n1` (centres unmarked) [I-400] returned a DC50 of under 50 nM. In the case of `CC(NCCOCCOCCCc1cccc2c1n(C)c(=O)n2C1CCC(=O)NC1=O)c1ccc(-n2cc(NC(=O)c3coc(-c4ccnc(NCC5CC5)c4)n3)c(C(F)F)n2)cc1` (centres unmarked) [I-401], the DC50 is under 50 nM. The compound `O=C1CCC(N2C(=O)c3cccc(NCCOCCOCCNCc4ccc(-n5cc(NC(=O)c6coc(-c7ccnc(NCC(F)(F)F)c7)n6)c(CCCO)n5)cc4)c3C2=O)C(=O)N1` (centres unmarked) [I-402] yielded a DC50 of over 1000 nM. In the case of `Cn1c(=O)n(C2CCC(=O)NC2=O)c2cccc(CCCOCCOCCNC3(c4ccc(-n5cc(NC(=O)c6coc(-c7ccnc(NCC8CC8)c7)n6)c(C(F)F)n5)cc4)CC3)c21` (centres unmarked) [I-403] it was 50 to 100 nM. In the case of `Cn1c(=O)n(C2CCC(=O)NC2=O)c2cccc(CCCOCCCNCc3ccc(-n4cc(NC(=O)c5coc(-c6ccnc(NCC7CC7)c6)n5)c(C(F)F)n4)cc3)c21` (centres unmarked) [I-404] it was under 50 nM; in that of `Cn1c(=O)n(C2CCC(=O)NC2=O)c2ccc(CCCOCCCNCc3ccc(-n4cc(NC(=O)c5coc(-c6ccnc(NCC7CC7)c6)n5)c(C(F)F)n4)cc3)cc21` (centres unmarked) [I-405], under 50 nM; in that of `Cn1c(=O)n(C2CCC(=O)NC2=O)c2cccc(CCCOCCCOCCCNCc3ccc(-n4cc(NC(=O)c5coc(-c6ccnc(NCC7CC7)c6)n5)c(C(F)F)n4)cc3)c21` (centres unmarked) [I-406], under 50 nM. In the case of `Cn1c(=O)n(C2CCC(=O)NC2=O)c2ccc(CCCOCCCOCCCNCc3ccc(-n4cc(NC(=O)c5coc(-c6ccnc(NCC7CC7)c6)n5)c(C(F)F)n4)cc3)cc21` (centres unmarked) [I-407] it was under 50 nM; in that of `Cn1cc(NC(=O)c2coc(-c3ccnc(NCC(F)(F)F)c3)n2)c(CNCCOCCOCCOCCNc2cccc3c2C(=O)N(C2CCC(=O)NC2=O)C3=O)n1` (centres unmarked) [I-408], over 1000 nM; in that of `Cn1c(=O)n(C2CCC(=O)NC2=O)c2ccc(CCCCOCCCCNCc3ccc(-n4cc(NC(=O)c5coc(-c6ccnc(NCC7CC7)c6)n5)c(C(F)F)n4)cc3)cc21` (centres unmarked) [I-411, 2-[2-(cyclopropylmethylamino)-4-pyridyl]-N-[3-(difluoromethyl)-1-[4-[[4-[4-[1-(2,6-dioxo-3-piperidyl)-3-methyl-2-oxo-benzimidazol-5-yl]butoxy]butylamino]methyl]phenyl]pyrazol-4-yl]oxazole-4-carboxamide], under 50 nM. Compound `Cn1cc(NC(=O)c2coc(-c3ccnc(NCC(F)(F)F)c3)n2)c(CNCCCOCCCOCCCNc2cccc3c2C(=O)N(C2CCC(=O)NC2=O)C3=O)n1` (centres unmarked) [I-412] gave a DC50 of over 1000 nM. To `Cc1ncsc1-c1ccc(CNC(=O)[C@@H]2C[C@@H](O)CN2C(=O)[C@@H](NCCOCCOCCOCCNCc2nn(C)cc2NC(=O)c2coc(-c3ccnc(NCC(F)(F)F)c3)n2)C(C)(C)C)cc1` [I-413] belongs over 1000 nM.

`Cc1ncsc1-c1ccc(CNC(=O)[C@@H]2C[C@@H](O)CN2C(=O)[C@@H](NC(=O)COCCOCCOCCNCc2ccc(-n3cc(NC(=O)c4coc(-c5ccnc(NCC(F)(F)F)c5)n4)c(C(N)=O)n3)cc2)C(C)(C)C)cc1` [I-414] registered a DC50 of 100 to 500 nM.

In the case of `Cc1ncsc1-c1ccc(CNC(=O)[C@@H]2C[C@@H](O)CN2C(=O)[C@@H](NCCOCCOCCOCCNCc2ccc(-n3cc(NC(=O)c4coc(-c5ccnc(NCC(F)(F)F)c5)n4)c(C(N)=O)n3)cc2)C(C)(C)C)cc1` [I-415], the DC50 is over 1000 nM. To `COCC(=O)N[C@H](C(=O)N1Cc2cc(OCCOCCOCCOCCOCCOCCNCc3ccc(-n4cc(NC(=O)c5coc(-c6ccnc(NCC7CC7)c6)n5)c(C(F)F)n4)cc3)ccc2CC1C(=O)N[C@@H]1CCCc2ccccc21)C(C)(C)C` (some centres unmarked) [I-416] belongs over 1000 nM; to `COCC(=O)N[C@H](C(=O)N1Cc2cc(OCCOCCOCCOCCNCc3ccc(-n4cc(NC(=O)c5coc(-c6ccnc(NCC7CC7)c6)n5)c(C(F)F)n4)cc3)ccc2CC1C(=O)N[C@@H]1CCCc2ccccc21)C(C)(C)C` (some centres unmarked) [I-417], over 1000 nM.

Compound `Cn1c(=O)n(C2CCC(=O)NC2=O)c2cccc(CCCOCC(C)(C)COCCCNCc3ccc(-n4cc(NC(=O)c5coc(-c6ccnc(NCC7CC7)c6)n5)c(C(F)F)n4)cc3)c21` (centres unmarked) [I-419] came in with a DC50 of 100 to 500 nM. Consider `Cn1cc(NC(=O)c2coc(-c3ccnc(NCC(F)(F)F)c3)n2)c(CNCCCOCC(C)(C)COCCCc2cccc3c2n(C)c(=O)n3C2CCC(=O)NC2=O)n1` (centres unmarked) [I-420], for which the DC50 was over 1000 nM.

As for `Cn1c(=O)n(C2CCC(=O)NC2=O)c2ccc(CCCOCC(C)(C)COCCCNCc3ccc(-n4cc(NC(=O)c5coc(-c6ccnc(NCC7CC7)c6)n5)c(C(F)F)n4)cc3)cc21` (centres unmarked) [I-421], the 50% degradation concentration (DC50) lay in the range of 100 to 500 nM. To `Cn1c(=O)n(C2CCC(=O)NC2=O)c2cccc(CCCOCCOCCNCc3ccc(-n4cc(NC(=O)c5cocn5)c(C(N)=O)n4)cc3)c21` (centres unmarked) [I-422] belongs over 1000 nM; to `Cn1c(=O)n(C2CCC(=O)NC2=O)c2cccc(CCCNCc3ccc(-n4cc(NC(=O)c5coc(-c6ccnc(NCC7CC7)c6)n5)c(C(F)F)n4)cc3)c21` (centres unmarked) [I-423], over 1000 nM; to `O=C1CCC(N2C(=O)c3cccc(NCCOCCOCCNC(=O)c4ccc(-n5cc(NC(=O)c6coc(-c7ccnc(NCC(F)(F)F)c7)n6)c(N6CCN(CCO)C6=O)n5)cc4)c3C2=O)C(=O)N1` (centres unmarked) [I-428], under 50 nM. Regarding `CC1(C)CCN(c2nn(-c3ccc(C(=O)NCCOCCOCCNc4cccc5c4C(=O)N(C4CCC(=O)NC4=O)C5=O)cc3)cc2NC(=O)c2coc(-c3ccnc(NCC(F)(F)F)c3)n2)C1=O` (centres unmarked) [I-429, N-[3-(3,3-dimethyl-2-oxo-pyrrolidin-1-yl)-1-[4-[2-[2-[2-[[2-(2,6-dioxo-3-piperidyl)-1,3-dioxo-isoindolin-4-yl]amino]ethoxy]ethoxy]ethyl]carbamoyl]phenyl]pyrazol-4-yl-2-[2-(2,2,2-trifluoroethylamino)-4-pyridyl]oxazole-4-carboxamide], the half-maximal degradation concentration (DC50) is over 1000 nM. In the case of `Cn1cc(NC(=O)c2coc(-c3cccnc3NCCOCCOCCOCCNc3cccc4c3C(=O)N(C3CCC(=O)NC3=O)C4=O)n2)c(C(F)F)n1` (centres unmarked) [I-432, N-[3-(difluoromethyl)-1-methyl-pyrazol-4-yl]-2-[2-[2-[2-[2-[2-[[2-(2,6-dioxo-3-piperidyl)-1,3-dioxo-isoindolin-4-yl]amino]ethoxy]ethoxy]ethoxy]ethylamino]-3-pyridyl]oxazole-4-carboxamide] it was over 1000 nM; in that of `Cn1c(=O)n(C2CCC(=O)NC2=O)c2ccc(CCCOCCCN3CCN(C4CCC(Nc5ncnn6ccc(C7CCOCC7)c56)CC4)CC3)cc21` (centres unmarked) [I-436, 3-[3-Methyl-2-oxo-5-[3-[3-[4-[4-[(5-tetrahydropyran-4-ylpyrrolo[2,1-f][1,2,4]triazin-4-yl)amino]cyclohexyl]piperazin-1-yl]propoxy]propyl]benzimidazol-1-yl]piperidine-2,6-dione], over 1000 nM; in that of `Cn1c(=O)n(C2CCC(=O)NC2=O)c2ccc(CCCOCCC(=O)N3CCN(C4CCC(Nc5ncnn6ccc(C7CCOCC7)c56)CC4)CC3)cc21` (centres unmarked) [I-437, 3-[3-Methyl-2-oxo-5-[3-[3-oxo-3-[4-[4-[(5-tetrahydropyran-4-ylpyrrolo[2,1-f][1,2,4]triazin-4-yl)amino]cyclohexyl]piperazin-1-yl]propoxy]propyl]benzimidazol-1-yl]piperidine-2,6-dione], over 1000 nM.
